US20250263408A1 (Uniquest Pty Ltd, priority 2022, published 2025)

Tests used:
[1] = target: T1, Syk (Homo sapiens, UniProt P43405); assay: Syk Biochemical Assay (ADP-Glo luminescence); settings: ATP 40 μM final, 60 minutes, read-out: SYK Biochem IC50
T1 construct: purchased Promega

[2] = target: T2, Ba/F3-Syk cells (Homo sapiens, UniProt P43405); assay: Ba/F3 Proliferation Assay, Ba/F3-Syk cells (Resazurin); type: cell-based; settings: 48-hour incubation
T2 construct: fused on or other part: Possible but unprinted fusion partner: TEL (ETV6), the usual partner for Ba/F3 lines transformed by Syk; Nothing on a partner is printed

[3] = tested on: Ba/F3-WT (wild type) cells; assay: Ba/F3 Proliferation Assay, Ba/F3-WT (wild type) cells with mIL-3 (Resazurin); type: cell-based; settings: Mus musculus, BaF3, 48 h, Ba/F3-WT cells +mIL-3, 48-hour incubation

Compound | IC50 [1] [nM] | EC50 [2] [nM] | EC50 [3] [nM]
C1=C(c2cc3ncccc3c(OC[C@@H]3CNCCO3)n2)CCC1 [Compound 10.1, 7-(cyclopent-1-en-1-yl)-5-{[(2S)-morpholin-2-yl]methoxy}-1,6-naphthyridine] | 209 | 487 | > 10000
CC(C)(C)n1cc(-c2cc3ncccc3c(OC[C@@H]3CNC[C@@H](C(F)(F)F)O3)n2)cn1 [Compound 13.14, 7-(1-tert-butyl-1H-pyrazol-4-yl)-5-{[(2S,6S)-6-(trifluoromethyl)morpholin-2-yl]methoxy}-1,6-naphthyridine] | 35 | 233 | 1380
CC(C)(C)n1cc(-c2cc3ncccc3c(OC[C@@H]3CNCC4(COC4)O3)n2)cn1 [Compound 13.15, 7-(1-tert-butyl-1H-pyrazol-4-yl)-5-{[(6S)-2,5-dioxa-8-azaspiro[3.5]nonan-6-yl]methoxy}-1,6-naphthyridine] | 19.8 | 47.2 | 1910
C[C@@H]1NCCO[C@@H]1COc1nc(-c2cnn(C3(C)CC3)c2)cc2ncccc12 [Compound 13.16, 7-[1-(1-methylcyclopropyl)-1H-pyrazol-4-yl]-5-{[(2S,3S)-3-methylmorpholin-2-yl]methoxy}-1,6-naphthyridine] | 31.7 | 43 | 518
CCc1ccnc2cc(-c3cnn(C(C)(C)C)c3)nc(OC[C@@H]3CNCC(C)(C)O3)c12 [Compound 14.14, 7-(1-tert-butyl-1H-pyrazol-4-yl)-5-{[(2S)-6,6-dimethylmorpholin-2-yl]methoxy}-4-ethyl-1,6-naphthyridine] | 33.6 | 20.6 | 1100
COc1ccnc2cc(-c3cnn(C(C)(C)C)c3)nc(OC[C@@H]3CNCC(C)(C)O3)c12 [Compound 14.15, 7-(1-tert-butyl-1H-pyrazol-4-yl)-5-{[(2S)-6,6-dimethylmorpholin-2-yl]methoxy}-4-methoxy-1,6-naphthyridine] | 21.1 | 44 | 519

Now those with a lower IC50 [1], led by results:

IC50 [1] [nM] | EC50 [2] [nM] | EC50 [3] [nM] | Compound
14.7 | 7.4 | 551 | CC(C)n1cc(-c2cc(OC[C@@H]3CNCC4(CCC4)O3)c3cccnc3c2)cn1 [Compound 11.8, 5-{[(6S)-5-oxa-8-azaspiro[3.5]nonan-6-yl]methoxy}-7-[1-(propan-2-yl)-1H-pyrazol-4-yl]quinoline]
5.1 | 1.3 | 703 | C[C@@H]1CNC[C@@H](COc2cc(-c3ccn(C(C)(C)C)c3)cc3nccnc23)O1 [Compound 12.8, 7-(1-tert-butyl-1H-pyrrol-3-yl)-5-{[(2S,6R)-6-methylmorpholin-2-yl]methoxy}quinoxaline]
16.3 | 41.8 | 1780 | CC(C)(C)n1cc(-c2cc3ncccc3c(OC[C@@H]3CNC[C@H](C(F)(F)F)O3)n2)cn1 [Compound 13.13, 7-(1-tert-butyl-1H-pyrazol-4-yl)-5-([(2S,6R)-6-(trifluoromethyl)morpholin-2-yl]methoxy}-1,6-naphthyridine]
